Experimental data: patent US8946426B2, “Substituted bicyclic heterocyclic compounds as gamma secretase modulators” (Janssen Pharmaceuticals, Inc., priority 2009, dated 2015)

Tests used:
Aβtotal [1] = assay: In vivo efficacy: Aβtotal lowering in brain after single oral dose (Table 8); settings: mouse brain soluble fraction, ELISA, compared to untreated animals
From the text: (§1) To determine whether acute administration of an Aβ42 lowering agent would reduce Aβ42 levels in vivo, non-transgenic rodents, e.g. mice or rats were used. Alternatively, two to three month old Tg2576 mice expressing APP695 containing the “Swedish” variant can be used or a transgenic mouse model developed by Dr. Fred Van Leuven (K.U.Leuven, Belgium) and co-workers, with neuron-specific expression of a clinical mutant of the human amyloid precursor protein [V7171] (Moechars et al., 1999 J. Biol. Chem. 274, 6483). Young transgenic mice have high levels of Aβ in the brain but no detectable Aβ deposition. At approximately 6-8 months of age, the transgenic mice start to display spontaneous, progressive accumulation of β-amyloid (Aβ) in the brain, eventually resulting in amyloid plaques within the subiculum, hippocampus and cortex. Animals treated with the Aβ42 lowering agent were examined and compared to those untreated or treated with vehicle and brain levels of soluble Aβ42 and total Aβ would be quantitated by standard techniques, for example, using ELISA. Treatment periods varied from hours to days and were adjusted based on the results of the Aβ42 lowering once a time course of onset of effect could be established.
(§2) A typical protocol for measuring Aβ42 lowering in vivo is shown but it is only one of many variations that could be used to optimize the levels of detectable Aβ. For example, Aβ42 lowering compounds were formulated in 20% of Captisol® (a sulfobutyl ether of β-cyclodextrin) in water or 20% hydroxypropyl β cyclodextrin. The Aβ42 lowering agents were administered as a single oral dose or by any acceptable route of administration to overnight fasted animals. After four hours, the animals were sacrificed and Aβ42 levels were analysed.
(§3) Blood was collected by decapitation and exsanguinations in EDTA-treated collection tubes. Blood was centrifuged at 1900 g for 10 min at 4° C. and the plasma recovered and flash frozen for later analysis. The brain was removed from the cranium and hindbrain. The cerebellum was removed and the left and right hemisphere were separated. The left hemisphere was stored at −18° C. for quantitative analysis of test compound levels. The right hemisphere was rinsed with phosphate-buffered saline (PBS) buffer and immediately frozen on dry ice and stored at −80° C. until homogenization for biochemical assays.
(§4) Mouse brains were resuspended in 10 volumes of 0.4% DEA (diethylamine)/50 mM NaCl pH 10 (for non-transgenic animals) or 0.1% 3-[(3-cholamidopropyl)-dimethyl-ammonio]-1-propanesulfonate (CHAPS) in tris buffered saline (TBS) (for transgenic animals) containing protease inhibitors (Roche-11873580001 or 04693159000 per gram of tissue, e.g. for 0.158 g brain, add 1.58 ml of 0.4% DEA. All samples were sonicated for 30 sec on ice at 20% power output (pulse mode). Homogenates were centrifuged at 221.300×g for 50 min. The resulting high speed supernatants were then transferred to fresh tubes and were optionally further purified before the next step. A portion of the supernatant was neutralized with 10% 0.5 M Tris-HCl and this was used to quantify Aβtotal.
(§5) The obtained supernatants were purified with Water Oasis HLB reverse phase columns (Waters Corp., Milford, Mass.) to remove non-specific immunoreactive material from the brain lysates prior subsequent Aβ detection. Using a vacuum manifold, all solutions were passed through the columns at a rate of approximately 1 ml per minute, so the vacuum pressure was adjusted accordingly throughout the procedure. Columns were preconditioned with 1 ml of 100% MeOH, before equilibration with 1 ml of H2O. Non-neutralized brain lysates were loaded onto the columns. The loaded samples were then washed twice with the first wash performed with 1 ml of 5% MeOH, and the second wash with 1 ml of 30% MeOH. Finally, the Aβ was eluted from the columns and into 100×30 mm glass tubes, with a solution of 90% MeOH with 2% NH4OH. […]

Aβ42 [2] = assay: In vivo efficacy: Aβ42 lowering in brain after single oral dose (Table 8); settings: mouse brain soluble fraction, ELISA, compared to untreated animals
From the text: as §1, §2, §3, §4, §5

Aβ42 [3] = assay: Method 1: Aβ42 sandwich ELISA in supernatant of SKNBE2 cells carrying APP 695-wild type (Tables 7a, 7b); format: cell-based
Procedure, shortened: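 SKNBE2 cells expressing wild-type APP695 were exposed to compound for 18 hours. Secreted Aβ42 was quantified by sandwich ELISA with C-terminal-selective capture, biotinylated 3D6 detection and TMB read-out at 450 nm. IC50 came from 4-parameter fits of % inhibition or % of untreated control; WST-1 monitored toxicity.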

Aβtotal [4] = assay: Method 1: Aβtotal sandwich ELISA in supernatant of SKNBE2 cells carrying APP 695-wild type (Tables 7a, 7b); format: cell-based
Procedure, shortened: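 SKNBE2 cells expressing wild-type APP695 were exposed to compound for 18 Hours in Ultraculture with 1% glutamine. Aβtotal in the supernatant was read by 6E10-capture/biotinylated 4G8 sandwich ELISA with a fluorogenic peroxidase read-out, and WST-1 checked toxicity. IC50 came from a 4-parameter fit of percent inhibition or percent of control versus concentration.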

Aβtotal [5] = assay: Method 2: Aβtotal Alphalisa in supernatant of SKNBE2 cells carrying APP 695-wild type (Table 7c); format: cell-based; settings: Method 2, Alphalisa, overnight incubation
Description: (§6) Screening was carried out using SKNBE2 cells carrying the APP 695-wild type, grown in Dulbecco's Modified Eagle's Medium/Nutrient mixture F-12 (DMEM/NUT-mix F-12) (HAM) provided by Invitrogen (cat no. 10371-029) containing 5% Serum/Fe supplemented with 1% non-essential amino acids, 1-glutamine 2 mM, Hepes 15 mM, penicillin 50 U/ml (units/ml) en streptomycin 50 μg/ml. Cells were grown to near confluency.
(§7) The screening was performed using a modification of the assay as described in Citron et al (1997) Nature Medicine 3: 67. Briefly, cells were plated in a 384-well plate at 10^4 cells/well in Ultraculture (Lonza, BE12-725F) supplemented with 1% glutamine (Invitrogen, 25030-024), 1% non-essential amino acid (NEAA), penicillin 50 U/ml en streptomycin 50 μg/ml in the presence of test compound at different test concentrations. The cell/compound mixture was incubated overnight at 37° C., 5% CO2. The next day the media were assayed by two sandwich immuno-assays, for Aβ42 and Aβtotal.
(§8) Aβtotal and Aβ42 concentrations were quantified in the cell supernatant using the Aphalisa technology (Perkin Elmer). Alphalisa is a sandwich assay using biotinylated antibody attached to streptavidin coated donorbeads and antibody conjugated to acceptor beads. In the presence of antigen, the beads come into close proximity. The excitation of the donor beads provokes the release of singlet oxygen molecules that trigger a cascade of energy transfer in the acceptor beads, resulting in light emission. To quantify the amount of Aβ42 in the cell supernatant, monoclonal antibody specific to the C-terminus of Aβ42 (JRF/cAβ42/26) was coupled to the receptor beads and biotinylated antibody specific to the N-terminus of Aβ (JRF/AβN/25) was used to react with the donor beads. To quantify the amount of Aβtotal in the cell supernatant, monoclonal antibody specific to the N-terminus of Aβ (JRF/AβN/25) was coupled to the receptor beads and biotinylated antibody specific to the mid region of Aβ (biotinylated 4G8) was used to react with the donor beads.
(§9) To obtain the values reported in Table 7c, the data were calculated as percentage of the maximum amount of amyloid Beta 42 measured in the absence of the test compound. The sigmoidal dose response curves were analyzed using non-linear regression analysis with percentage of the control plotted against the log concentration of the compound. A 4-parameter equation was used to determine the IC50.

Aβ42 [6] = assay: Method 2: Aβ42 Alphalisa in supernatant of SKNBE2 cells carrying APP 695-wild type (Table 7c); format: cell-based; settings: Method 2, Alphalisa, overnight incubation
Description: as §6, §7, §8, §9

[7] = Table 7b, averaged IC50, non-linear regression of percentage of control vs log concentration, 4-parameter equation
[8] = Table 7a, SKNBE2 cells, compounds 18 h, XLfit 4-parameter fit of percent inhibition, top/bottom fixed to 100/0, hill slope 1
[9] = Homo sapiens, SKNBE2, Table 7b, averaged IC50, non-linear regression of percentage of control vs log concentration, 4-parameter equation
[10] = Homo sapiens, Table 7a, SKNBE2 cells, compounds 18 h, XLfit 4-parameter fit of percent inhibition, top/bottom fixed to 100/0, hill slope 1

COc1cc(Nc2cc(F)cn3cc(CC(C)C)nc23)ccc1-c1ocnc1C.Cl [Compound 157]
Aβtotal (% Ctrl)_Mean (Aβtotal [1]): 100 % Ctrl | Aβ42 (% Ctrl)_Mean (Aβ42 [2]): 77 % Ctrl | IC50 (Aβ42 [3]; [7]): 0.081 µM | IC50 (Aβtotal [4]; [7]): > 10 µM

COc1cc(Nc2cccc3c2nc(-c2ccc(F)cc2)n3C(C)C)ccc1-c1cnc(C)o1.Cl.Cl [Compound 25]
Aβtotal (% Ctrl)_Mean (Aβtotal [1]): 96 % Ctrl | Aβ42 (% Ctrl)_Mean (Aβ42 [2]): 76 % Ctrl | IC50 (Aβ42 [3]; [8]): 0.024 µM | IC50 (Aβ42 [3]; [7]): 0.023 µM | IC50 (Aβtotal [4]; [8]): > 3 µM | IC50 (Aβtotal [4]; [7]): > 3 µM

COc1ccc(C)c(-c2cn3cccc(Nc4ccc(-c5cnc(C)o5)c(F)c4)c3n2)c1 [Compound 41]
Aβtotal (% Ctrl)_Mean (Aβtotal [1]): 87 % Ctrl | Aβ42 (% Ctrl)_Mean (Aβ42 [2]): 93 % Ctrl | IC50 (Aβ42 [3]; [7]): 0.126 µM | IC50 (Aβtotal [4]; [7]): > 3 µM

COc1cc(Nc2nccc3c2nc(-c2ccc(F)cc2F)n3C)ccc1-c1ocnc1C [Compound 54]
Aβtotal (% Ctrl)_Mean (Aβtotal [1]): 104 % Ctrl | Aβ42 (% Ctrl)_Mean (Aβ42 [2]): 101 % Ctrl | IC50 (Aβ42 [3]; [7]): 0.49 µM | IC50 (Aβtotal [4]; [7]): > 10 µM

Cc1ncc(-c2ccc(Nc3cc(C(F)(F)F)cn4cc(C(=O)N(C)C)nc34)cc2F)o1 [Compound 181]
Aβtotal (% Ctrl)_Mean (Aβtotal [1]): 105 % Ctrl | Aβ42 (% Ctrl)_Mean (Aβ42 [2]): 104 % Ctrl | IC50 (Aβ42 [3]; [7]): > 3 µM | IC50 (Aβtotal [4]; [7]): > 3 µM

COc1ccc(C)c(-c2cn3cccc(Nc4ccc(-c5cnc(C)o5)cc4)c3n2)c1 [Compound 40]
Aβtotal (% Ctrl)_Mean (Aβtotal [1]): 102 % Ctrl | Aβ42 (% Ctrl)_Mean (Aβ42 [2]): 77 % Ctrl | IC50 (Aβ42 [3]; [8]): 0.011 µM | IC50 (Aβ42 [3]; [7]): 0.012 µM | IC50 (Aβtotal [4]; [8]): > 3 µM | IC50 (Aβtotal [4]; [7]): > 3 µM

COc1cc(Nc2cc(C(F)(F)F)cc3c2nc(-c2ccc(F)cc2)n3C)ccc1-c1cnc(C)o1 [Compound 30]
Aβtotal (% Ctrl)_Mean (Aβtotal [1]): 92 % Ctrl | Aβ42 (% Ctrl)_Mean (Aβ42 [2]): 96 % Ctrl | IC50 (Aβ42 [3]; [7]): 0.035 µM | IC50 (Aβtotal [4]; [7]): > 10 µM

COc1cc(Nc2ccc(-c3cnc(C)o3)c(OC)c2)c2nc(-c3ccc(F)cc3)n(C)c2c1 [Compound 95]
Aβtotal (% Ctrl)_Mean (Aβtotal [1]): 88 % Ctrl | Aβ42 (% Ctrl)_Mean (Aβ42 [2]): 47 % Ctrl | IC50 (Aβ42 [3]; [7]): 0.023 µM | IC50 (Aβtotal [4]; [7]): > 3 µM

COc1cccc(-c2nc3c(Nc4ccc(-c5cnc(C)o5)c(OC)c4)nc(C)cc3n2C)c1 [Compound 97]
Aβtotal (% Ctrl)_Mean (Aβtotal [1]): 102 % Ctrl | Aβ42 (% Ctrl)_Mean (Aβ42 [2]): 71 % Ctrl | IC50 (Aβ42 [3]; [7]): 0.021 µM | IC50 (Aβtotal [4]; [7]): > 3 µM

COc1cccc(-c2nc3c(Nc4ccc(-c5cnc(C)o5)c(OC)c4)cccc3n2C)c1 [Compound 63]
Aβtotal (% Ctrl)_Mean (Aβtotal [1]): 90 % Ctrl | Aβ42 (% Ctrl)_Mean (Aβ42 [2]): 56 % Ctrl | IC50 (Aβ42 [3]; [7]): 0.011 µM | IC50 (Aβtotal [4]; [7]): > 3 µM

COCCc1c(-c2ccc(F)cc2)nc2c(Nc3ccc(-c4cnc(C)o4)c(OC)c3)cccn12 [Compound 174]
IC50 (Aβ42 [3]; [7]): 0.01 µM | IC50 (Aβtotal [5]): > 10 µM | IC50 (Aβtotal [4]; [7]): > 3 µM | IC50 (Aβ42 [6]): 0.022 µM

COc1cc(Nc2nccc3c2nc(-c2ccc(F)cc2F)n3C)ccc1-c1cnc(C)o1 [Compound 31]
Aβtotal (% Ctrl)_Mean (Aβtotal [1]): 102 % Ctrl | Aβ42 (% Ctrl)_Mean (Aβ42 [2]): 91 % Ctrl | IC50 (Aβ42 [3]; [8]): 0.076 µM | IC50 (Aβ42 [3]; [7]): 0.078 µM | IC50 (Aβtotal [4]; [8]): > 3 µM | IC50 (Aβtotal [4]; [7]): > 3 µM

COc1cccc(-c2nc3c(Nc4ccc(-c5ocnc5C)c(OC)c4)cccn3c2C)c1 [Compound 2]
Aβtotal (% Ctrl)_Mean (Aβtotal [1]): 104 % Ctrl | Aβ42 (% Ctrl)_Mean (Aβ42 [2]): 95 % Ctrl | IC50 (Aβ42 [3]; [9]): 0.02 µM | IC50 (Aβ42 [3]; [10]): 0.022 µM | IC50 (Aβtotal [4]; [9]): > 3 µM | IC50 (Aβtotal [4]; [10]): > 3 µM

Cc1nc(C)c(-c2ccc(Nc3cccc4c3nc(-c3ccc(F)cc3)n4C(C)C)cn2)o1 [Compound 82]
IC50 (Aβ42 [3]; [7]): 0.037 µM | IC50 (Aβtotal [5]): > 10 µM | IC50 (Aβtotal [4]; [7]): > 3 µM | IC50 (Aβ42 [6]): 0.049 µM

Cc1ncc(-c2ccc(Nc3cccn4c(C)c(-c5ccccc5C(F)(F)F)nc34)cn2)o1 [Compound 167]
IC50 (Aβ42 [3]; [7]): 0.021 µM | IC50 (Aβtotal [5]): > 10 µM | IC50 (Aβtotal [4]; [7]): > 3 µM | IC50 (Aβ42 [6]): 0.018 µM

Cc1ncc(-c2ccc(Nc3cc(F)cn4cc(-c5ccc(F)cc5C)nc34)cn2)o1 [Compound 171]
IC50 (Aβ42 [3]; [7]): 0.02 µM | IC50 (Aβtotal [5]): > 10 µM | IC50 (Aβtotal [4]; [7]): > 3 µM | IC50 (Aβ42 [6]): 0.038 µM

COc1cc(Nc2cc(C#N)cn3cc(CC(C)C)nc23)ccc1-c1ocnc1C [Compound 202]
IC50 (Aβ42 [3]; [7]): 0.135 µM | IC50 (Aβtotal [5]): 8.51 µM | IC50 (Aβtotal [4]; [7]): > 3 µM | IC50 (Aβ42 [6]): 0.245 µM
